# Results: patent US20050245399A1, “Pyrazole derivatives as herbicidal compositions containing them” (ISHIHARA SANGYO KAISHA, LTD., priority 2004, published 2005)
# How the values were obtained:
# [1] = system: green foxtail (Setaria viridis L.), SETVI; assay: Test Example 2 post-emergence (foliage treatment) herbicidal activity, SETVI; format: in vivo; details: 63 g a.i./ha
# Outline: (§1)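 Each species was evaluated for growth suppression by eye, 0% matching untreated and 100% meaning death, some 20 to 23 days after a single post-emergence foliar treatment applied in 500 L/ha of water carrying 0.1% (v/v) agricultural spreader.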
# [2] = system: prickly sida (Sida spinosa L.): SEDSP; assay: Test Example 1 pre-emergence herbicidal activity, SIDSP; format: in vivo; details: Rate 63 g a.i./ha, visually observed 20th to 23rd day after application
# Outline: (§2)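 Percent growth control, rated visually 20–23 d after a pre-emergence spray applied 1 d post-sowing; compound formulated as WP or EC in 500 L/ha water at a predetermined a.i. amount.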
# [3] = system: barnyardgrass (Echinochloa crus-galli L.): ECHCG; assay: Test Example 1 pre-emergence herbicidal activity, ECHCG; format: in vivo; details: Rate 63 g a.i./ha, visually observed 20th to 23rd day after application
# Outline: as §2
# [4] = system: rice (Oryza sativa L.), ORYSA; assay: Test Example 2 post-emergence (foliage treatment) herbicidal activity, ORYSA; format: in vivo; details: 63 g a.i./ha
# Outline: as §1
# [5] = system: crabgrass (Digitaria sanguinalis L.): DIGSA; assay: Test Example 1 pre-emergence herbicidal activity, DIGSA; format: in vivo; details: Rate 63 g a.i./ha, visually observed 20th to 23rd day after application
# Outline: as §2
# [6] = system: wheat (Triticum aestivum L.): TRZAX; assay: Test Example 1 pre-emergence herbicidal activity, TRZAX; format: in vivo; details: Rate 63 g a.i./ha, visually observed 20th to 23rd day after application
# Outline: as §2
# [7] = system: soybean (Glycine max Merr.), GLXMA; assay: Test Example 2 post-emergence (foliage treatment) herbicidal activity, GLXMA; format: in vivo; details: 63 g a.i./ha
# Outline: as §1
# [8] = system: redroot pigweed (Amaranthus retroflexus L.), AMARE; assay: Test Example 2 post-emergence (foliage treatment) herbicidal activity, AMARE; format: in vivo; details: 63 g a.i./ha
# Outline: as §1
# [9] = system: corn (Zea mays L.), ZEAMX; assay: Test Example 2 post-emergence (foliage treatment) herbicidal activity, ZEAMX; format: in vivo; details: 63 g a.i./ha
# Outline: as §1
# [10] = system: wheat (Triticum aestivum L.), TRZAX; assay: Test Example 2 post-emergence (foliage treatment) herbicidal activity, TRZAX; format: in vivo; details: 63 g a.i./ha
# Outline: as §1
# [11] = system: barnyardgrass (Echinochloa crus-galli L.), ECHCG; assay: Test Example 2 post-emergence (foliage treatment) herbicidal activity, ECHCG; format: in vivo; details: 63 g a.i./ha
# Outline: as §1
# [12] = system: crabgrass (Digitaria sanguinalis L.), DIGSA; assay: Test Example 2 post-emergence (foliage treatment) herbicidal activity, DIGSA; format: in vivo; details: 63 g a.i./ha
# Outline: as §1
# [13] = system: velvetleaf (Abutilon theophrasti): ABUTH; assay: Test Example 1 pre-emergence herbicidal activity, ABUTH; format: in vivo; details: Rate 63 g a.i./ha, visually observed 20th to 23rd day after application
# Outline: as §2
# [14] = system: green foxtail (Setaria viridis L.): SETVI; assay: Test Example 1 pre-emergence herbicidal activity, SETVI; format: in vivo; details: Rate 63 g a.i./ha, visually observed 20th to 23rd day after application
# Outline: as §2
# [15] = system: prickly sida (Sida spinosa L.), SIDSP; assay: Test Example 2 post-emergence (foliage treatment) herbicidal activity, SIDSP; format: in vivo; details: 63 g a.i./ha
# Outline: as §1
# [16] = system: corn (Zea mays L.): ZEAMX; assay: Test Example 1 pre-emergence herbicidal activity, ZEAMX; format: in vivo; details: Rate 63 g a.i./ha, visually observed 20th to 23rd day after application
# Outline: as §2
# [17] = system: soybean (Glycine max Merr.): GLXMA; assay: Test Example 1 pre-emergence herbicidal activity, GLXMA; format: in vivo; details: Rate 63 g a.i./ha, visually observed 20th to 23rd day after application
# Outline: as §2
# [18] = system: velvetleaf (Abutilon theophrasti), ABUTH; assay: Test Example 2 post-emergence (foliage treatment) herbicidal activity, ABUTH; format: in vivo; details: 63 g a.i./ha
# Outline: as §1
# [19] = system: rice (Oryza sativa L.): ORYSA; assay: Test Example 1 pre-emergence herbicidal activity, ORYSA; format: in vivo; details: Rate 63 g a.i./ha, visually observed 20th to 23rd day after application
# Outline: as §2
# [20] = system: redroot pigweed (Amaranthus retroflexus L.): AMARE; assay: Test Example 1 pre-emergence herbicidal activity, AMARE; format: in vivo; details: Rate 63 g a.i./ha, visually observed 20th to 23rd day after application
# Outline: as §2
# [21] = system: barnyardgrass (Echinochiloa oryzicola: ECHOR); assay: Test Example 3 water application herbicidal activity (paddy), ECHOR; format: in vivo; details: 63 g a.i./ha, water application under submerged condition at 0.5 leaf stage, visually observed 14th day after application; 0 = untreated control, 100 = complete kill
# Outline: (§3)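 Compound, as diluted wettable powder or emulsifiable concentrate, was pipetted into flood water at a set active-ingredient dose. Weeds were treated at 0.5-leaf stage after sowing or tuber planting; 2-leaf rice 4 days post-transplant. Control scored visually, 0 untreated to 100 complete kill, weeds day 14, rice day 21.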
# [22] = system: rice (Oryza sativa L.: ORYSA); assay: Test Example 3 water application herbicidal activity (paddy), transplanted rice ORYSA; format: in vivo; details: 63 g a.i./ha, water application 4th day after transplantation of 2 leaf stage rice, visually observed 21st day after application; 0 = untreated control, 100 = complete kill
# Outline: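 Rice at 2-leaf stage is transplanted into flooded puddled soil and treated by water application 4 days later, at a predetermined active-ingredient dose. Crop injury is rated visually as growth control (0–100%) 21 days after treatment.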
# [23] = system: japanese ribbon wapato (Sagittaria pygmaea: SA GPY); assay: Test Example 3 water application herbicidal activity (paddy), SAGPY; format: in vivo; details: 63 g a.i./ha, water application under submerged condition, tubers planted, visually observed 14th day after application; 0 = untreated control, 100 = complete kill
# Outline: as §3
# [24] = system: japanese bulrush (Scirpus juncoides: SCPJO); assay: Test Example 3 water application herbicidal activity (paddy), SCPJO; format: in vivo; details: 63 g a.i./ha, water application under submerged condition at 0.5 leaf stage, visually observed 14th day after application; 0 = untreated control, 100 = complete kill
# Outline: as §3
SMILES,"growth controlling degree, SETVI [1] [%]",Pre-emergence Herbicidal Activity SIDSP (growth controlling degree) [2] [%],Pre-emergence Herbicidal Activity ECHCG (growth controlling degree) [3] [%],"growth controlling degree, ORYSA [4] [%]",Pre-emergence Herbicidal Activity DIGSP (growth controlling degree) [5] [%],Pre-emergence Herbicidal Activity TRZAX (growth controlling degree) [6] [%],"growth controlling degree, GLXMA [7] [%]","growth controlling degree, AMARE [8] [%]","growth controlling degree, ZEAMX [9] [%]","growth controlling degree, TRZAX [10] [%]","growth controlling degree, ECHCO [11] [%]","growth controlling degree, DIGSP [12] [%]",melting point [°C],Pre-emergence Herbicidal Activity ABUTH (growth controlling degree) [13] [%],Pre-emergence Herbicidal Activity SETVI (growth controlling degree) [14] [%],"growth controlling degree, SIDSP [15] [%]",Pre-emergence Herbicidal Activity ZEAMX (growth controlling degree) [16] [%],Pre-emergence Herbicidal Activity GLXMA (growth controlling degree) [17] [%],"growth controlling degree, ABUTH [18] [%]",Pre-emergence Herbicidal Activity ORYSA (growth controlling degree) [19] [%],further results
"COc1c(Cl)cc(F)c(-c2nn(C)c(OC(F)F)c2Cl)c1NC(=O)OCc1ccccn1 [Compound 1-69, [3-chloro-6-[4-chloro-5-(difluoromethoxy)-1-methyl-1H-pyrazol-3-yl]-5-fluoro-2-methoxyphenyl]-carbamic acid, 2-pyridinylmethyl ester]",100,100,80,95,100,0,95,100,95,50,100,70,35 to 37,100,100,100,10,10,100,10,Pre-emergence Herbicidal Activity AMARE (growth controlling degree) [20]: 100%
"COc1c(Cl)cc(F)c(-c2nn(C)c(OC(F)F)c2Cl)c1NC=O [Compound 1-4, [3-chloro-6-[4-chloro-5-(difluoromethoxy)-1-methyl-1H-pyrazol-3-yl]-5-fluoro-2-methoxyphenyl]-formamide]",100,100,95,50,100,40,80,100,80,50,100,100,100 to 103,100,100,100,40,40,100,80,growth controlling degrees (%) ECHOR [21]: 100%; growth controlling degrees (%) ORYSA [22]: 70%; growth controlling degrees (%) SAGPY [23]: 98%; growth controlling degrees (%) SCPJO [24]: 100%; Pre-emergence Herbicidal Activity AMARE (growth controlling degree) [20]: 100%
